Laboratory results: patent publication US8802597B2, “Herbicidal pyrimidines” (E I du Pont de Nemours and Company, priority 2003, dated 2014)

Tests used:
Assay in all cases: Test A pre/postemergence
Assay type in all cases: in vivo
[1] = system: giant foxtail (Setaria faberi)
Procedure: (§1) Seeds of barnyardgrass (Echinochloa crus-galli), crabgrass (Digitaria sanguinalis), giant foxtail (Setaria faberi), morningglory (Ipomoea spp.), redroot pigweed (Amaranthus retroflexus) and velvetleaf (Abutilon theophrasti) were planted into a blend of loam soil and sand and treated preemergence with a directed soil spray using test chemicals formulated in a non-phytotoxic solvent mixture which included a surfactant. At the same time these species were also treated with postemergence applications of test chemicals formulated in the same manner.
(§2) Plants ranged in height from 2 to 10 cm and were in the 1- to 2-leaf stage for the postemergence treatment. Treated plants and untreated controls were maintained in a greenhouse for approximately ten days, after which time all treated plants were compared to untreated controls and visually evaluated for injury. Plant response ratings, summarized in Table A, are based on a 0 to 100 scale where 0 is no effect and 100 is complete control. A dash (-) response means no test results.

[2] = system: redroot pigweed (Amaranthus retroflexus)
Procedure: as §1, §2

[3] = system: barnyardgrass (Echinochloa crus-galli)
Procedure: as §1, §2

[4] = system: morningglory (Ipomoea spp.)
Procedure: as §1, §2

[5] = system: crabgrass (Digitaria sanguinalis)
Procedure: as §1, §2

[6] = system: velvetleaf (Abutilon theophrasti)
Procedure: as §1, §2

[7] = Postemergence, 125 g ai/ha, 0 to 100 scale (0 no effect, 100 complete control)
[8] = Postemergence, 500 g ai/ha, 0 to 100 scale (0 no effect, 100 complete control)
[9] = Preemergence, 125 g ai/ha, 0 to 100 scale where 0 is no effect and 100 is complete control, approximately ten days
[10] = Preemergence, 500 g ai/ha, 0 to 100 scale where 0 is no effect and 100 is complete control, approximately ten days

SMILES	Plant response rating, Foxtail, Giant [1, 7]	Plant response rating, Foxtail, Giant [1, 8]	Plant response rating, Foxtail, Giant [1, 9]	Plant response rating, Foxtail, Giant [1, 10]	Plant response rating, Pigweed [2, 7]	Plant response rating, Pigweed [2, 8]	Plant response rating, Pigweed [2, 9]	Plant response rating, Pigweed [2, 10]	Plant response rating, Barnyardgrass [3, 7]	Plant response rating, Barnyardgrass [3, 8]	Plant response rating, Barnyardgrass [3, 9]	Plant response rating, Barnyardgrass [3, 10]	Plant response rating, Morningglory [4, 7]	Plant response rating, Morningglory [4, 8]	Plant response rating, Morningglory [4, 9]	Plant response rating, Morningglory [4, 10]	Plant response rating, Crabgrass [5, 7]	Plant response rating, Crabgrass [5, 8]	Plant response rating, Crabgrass [5, 9]	Plant response rating, Crabgrass [5, 10]	also measured
CC1(C)OCC(COC(=O)c2nc(C3CC3)nc(N)c2Cl)O1 (stereo not drawn) [Compound 147]	60	90	40	85	85	95	80	90	80	90	70	85	85	100	95	100	25	75	70	80	Plant response rating, Velvetleaf [6, 7]: 80; Plant response rating, Velvetleaf [6, 8]: 100; Plant response rating, Velvetleaf [6, 9]: 75; Plant response rating, Velvetleaf [6, 10]: 95
CCOC(=O)c1nc(-c2ccccc2F)nc(N)c1Cl [Compound 106]	0	0	0	0	15	70	0	30	0	5	0	5	20	35	0	0	0	0	0	0	Plant response rating, Velvetleaf [6, 7]: 25; Plant response rating, Velvetleaf [6, 8]: 55; Plant response rating, Velvetleaf [6, 9]: 5; Plant response rating, Velvetleaf [6, 10]: 30
COCCOCCOC(=O)c1nc(C2CC2)nc(N)c1Cl [Compound 141]	40	85	5	85	90	100	80	85	80	90	35	75	90	90	85	95	25	80	60	85	Plant response rating, Velvetleaf [6, 7]: 85; Plant response rating, Velvetleaf [6, 8]: 100; Plant response rating, Velvetleaf [6, 9]: 80; Plant response rating, Velvetleaf [6, 10]: 85
COC(=O)COc1nc(C2CC2)nc(N)c1Cl [Compound 112]	0	0	0	0	20	40	10	30	0	0	0	10	55	50	0	10	0	0	0	10	Plant response rating, Velvetleaf [6, 7]: 20; Plant response rating, Velvetleaf [6, 8]: 35; Plant response rating, Velvetleaf [6, 9]: 0; Plant response rating, Velvetleaf [6, 10]: 10
COC(=O)c1nc(-c2ccc(C)c(F)c2)nc(N)c1Cl [Compound 86]	0	0	0	0	20	50	0	5	10	30	0	0	0	20	0	0	0	0	0	0	Plant response rating, Velvetleaf [6, 7]: 70; Plant response rating, Velvetleaf [6, 8]: 85; Plant response rating, Velvetleaf [6, 9]: 0; Plant response rating, Velvetleaf [6, 10]: 10
CCOC(=O)Cc1nc(-c2ccc(Cl)cc2)nc(N)c1Cl [Compound 120]	0	0	0	0	20	35	0	0	10	40	5	15	25	55	0	0	0	5	0	0	Plant response rating, Velvetleaf [6, 7]: 50; Plant response rating, Velvetleaf [6, 8]: 65; Plant response rating, Velvetleaf [6, 9]: 0; Plant response rating, Velvetleaf [6, 10]: 0
CS(=O)(=O)NC(=O)c1nc(C2CC2)nc(N)c1Cl [Compound 132]	0	5	0	0	50	65	15	65	0	10	0	0	45	50	0	0	5	10	0	0	Plant response rating, Velvetleaf [6, 7]: 50; Plant response rating, Velvetleaf [6, 8]: 60; Plant response rating, Velvetleaf [6, 9]: 0; Plant response rating, Velvetleaf [6, 10]: 5
Cc1ccc(-c2nc(N)c(Cl)c(C(=O)O)n2)cc1F [Compound 87]	0	30	0	0	55	90	85	100	50	90	0	20	0	15	0	20	0	10	10	75	Plant response rating, Velvetleaf [6, 7]: 90; Plant response rating, Velvetleaf [6, 8]: 95; Plant response rating, Velvetleaf [6, 9]: 25; Plant response rating, Velvetleaf [6, 10]: 95
CC(C)c1nc(N)c(Cl)c(C(=O)[O-])n1.[Na+] [Compound 109]	0	10	0	5	60	85	50	80	0	10	0	25	70	80	30	95	0	10	0	25	Plant response rating, Velvetleaf [6, 7]: 25; Plant response rating, Velvetleaf [6, 8]: 80; Plant response rating, Velvetleaf [6, 9]: 15; Plant response rating, Velvetleaf [6, 10]: 50
